The source of these data is patent US20260091015A1, “TREATING IRON DEFICIENCY WITH FERRIC CARBOXYMALTOSE” (PHARMACOSMOS HOLDING A/S, priority 2018, published 2026).

The conditions of series [1]: clinical trials and case reports; Wolf et al., 2013; cited from earlier work.
A further series concerns human intact FGF23. The series is described as follows: Intact FGF23 (iFGF23) over time, two-site ELISA, trials IDA-04/IDA-05. The class given is in vivo. To be noted: single dose 1000 mg at baseline. How it is done:
The trial was a randomized, open-label, comparative trial. Subjects with Iron Deficiency Anaemia (IDA) were randomized 1:1 to one treatment course of one of the following treatments: • Group A: iron isomaltoside 1000 (Monofer®, Pharmacosmos, Holbok, Denmark, termed iron isomaltoside in the following), 1000 mg at baseline • Group B: ferric carboxymaltose (Ferinject®/Injectafer®, Vifor Inc, Switzerland), 750 mg at baseline and day 7, cumulative dose: 1500 mg
The secondary safety endpoints were the following: • Incidence of s-phosphate below 1.0 mg/dL at any time from baseline to day 35 • Time with hypophosphatemia (i.e. time with s-phosphate <2.0 mg/dL) from baseline to day 35 • Proportion of subjects with hypophosphatemia at day 35 • Absolute [Δ] and relative [%] changes in s-phosphate from baseline to 1, 7, 8, 14, 21, and 35 • Fractional phosphate urinary excretion at 1, 7, 8, 14, 21, and 35 • Change in iFGF23, cFGF23, vitamin D (25, 1,25, 24,25), PTH, and ionized calcium from baseline to 1, 7, 8, 14, 21, and 35 • Type and incidence of AEs • Serious or severe hypersensitivity reaction starting on or after the first dose of randomized treatment (i.e. treatment emergent). The hypersensitivity terms were defined as standardised Medical Dictionary for Regulatory Activities query (SMQ) terms. […]
The following safety laboratory assessments were analysed: • S-phosphate: inorganic phosphorous forms an ammonium phosphomolybdate complex having the formula (NH4)3[PO4](MoO3)12 with ammonium molybdate in the presence of sulfuric acid. The complex was determined photometrically in the ultraviolet region (340 nm) of the spectrum using the Roche Modular and Cobas Analyzer. • iFGF23 and cFGF23: the human intact FGF23 was measured by the 2nd generation Elisa kit manufactured by Immonotropics, Inc, San Clemente, CA. […] The human C-terminal FGF23 was measured by the Elisa kit manufactured by Immonotropics, Inc, San Clemente, CA. […] After evaporation under nitrogen, the residue was reconstituted and analyzed using Liquid Chromatography (LC) with Tandem Mass Spectrometric detection (MS/MS). […] A direct relationship exists between the amount of PTH present in the patient sample and the amount of relative light units (RLUs) detected by the system. • Ionized calcium: Measured by the IL GEM Premier 3500 PAK cartridge. […]

On to iron polymaltose, for which the “risk for iFGF23-mediated reduction of serum phosphate levels and development of hypophosphatemia” value in series [1] is on record as “highest risk”.

On to saccharated iron oxide, for which, in series [1], the “risk for iFGF23-mediated reduction of serum phosphate levels and development of hypophosphatemia” value is listed as “highest risk”.

For the substance iron isomaltoside 1000 [IIM], the “change of the iFGF23 level” value in the series on human intact FGF23 is on record as “essentially no change”.
